Data as given in the NIST ThermoML archive (doi:10.1021/acs.jced.5b01057).
± gives the expanded uncertainty stated by the source.

Assay: mn = molality of the nth substance listed, in mol/kg
Conditions: for surface tension liquid-gas: Pendant drop shape; for electrical conductivity: 100 kPa, Liquid, Alternating current cell with electrodes

Molecule CCCCCCCCCCCC[NH2+]C1O[C@H](CO)[C@@H](O[C@@H]2O[C@H](CO)[C@H](O)[C@H](O)[C@H]2O)[C@H](O)[C@H]1O.CCCCCCCCCCCC[NH2+]C1O[C@H](CO)[C@@H](O[C@@H]2O[C@H](CO)[C@H](O)[C@H](O)[C@H]2O)[C@H](O)[C@H]1O.O=C([O-])CC(=O)[O-] (some centres not stated) [N-dodecyllactosylammonium propanedioate] + O has a surface tension liquid-gas (298.15 K, m1 = 0.0005) of 68.12 ± 1.5 mN/m, a surface tension liquid-gas (298.15 K, m1 = 0.001) of 61.14 ± 1.3 mN/m and a surface tension liquid-gas (298.15 K, m1 = 0.0015) of 55.99 ± 1.2 mN/m. For the same molecule, the surface tension liquid-gas (298.15 K, m1 = 0.002) was 51.91 ± 1.1 mN/m, the surface tension liquid-gas (298.15 K, m1 = 0.0025) was 47.5 ± 1 mN/m and the surface tension liquid-gas (298.15 K, m1 = 0.003) was 44.9 ± 0.98 mN/m. The surface tension liquid-gas (298.15 K, m1 = 0.004) was 40.37 ± 0.88 mN/m, the surface tension liquid-gas (298.15 K, m1 = 0.005) was 35.39 ± 0.78 mN/m and the surface tension liquid-gas (298.15 K, m1 = 0.006) was 32.88 ± 0.73 mN/m. For the same molecule, the surface tension liquid-gas (298.15 K, m1 = 0.007) was 30.63 ± 0.68 mN/m, the surface tension liquid-gas (298.15 K, m1 = 0.008) was 28.97 ± 0.64 mN/m and the electrical conductivity (298.15 K, m1 = 0.00159) was 0.00597 ± 0.00061 S/m. The electrical conductivity (298.15 K, m1 = 0.00317) was 0.0115 ± 0.0012 S/m, the electrical conductivity (298.15 K, m1 = 0.00474) was 0.0168 ± 0.0017 S/m and the electrical conductivity (298.15 K, m1 = 0.00552) was 0.0194 ± 0.002 S/m. For the same molecule, the electrical conductivity (298.15 K, m1 = 0.0063) was 0.0227 ± 0.0023 S/m, the electrical conductivity (298.15 K, m1 = 0.00707) was 0.0251 ± 0.0026 S/m and the electrical conductivity (298.15 K, m1 = 0.00784) was 0.0271 ± 0.0027 S/m. It also gave an electrical conductivity (298.15 K, m1 = 0.00861) of 0.0288 ± 0.0029 S/m, a surface tension liquid-gas (323.15 K, m1 = 0.0004) of 65.73 ± 1.4 mN/m and a surface tension liquid-gas (323.15 K, m1 = 0.0006) of 62.69 ± 1.4 mN/m. For the same molecule, the surface tension liquid-gas (323.15 K, m1 = 0.0008) was 59.26 ± 1.3 mN/m, the surface tension liquid-gas (323.15 K, m1 = 0.001) was 56.85 ± 1.2 mN/m and the surface tension liquid-gas (323.15 K, m1 = 0.0014) was 52.69 ± 1.1 mN/m. It also gave a surface tension liquid-gas (323.15 K, m1 = 0.002) of 47.4 ± 1 mN/m, a surface tension liquid-gas (323.15 K, m1 = 0.0024) of 44.7 ± 0.98 mN/m and a surface tension liquid-gas (323.15 K, m1 = 0.003) of 41.32 ± 0.9 mN/m. The surface tension liquid-gas (323.15 K, m1 = 0.004) was 37.19 ± 0.82 mN/m, the surface tension liquid-gas (323.15 K, m1 = 0.005) was 33.3 ± 0.73 mN/m and the surface tension liquid-gas (323.15 K, m1 = 0.006) was 30.53 ± 0.68 mN/m. The surface tension liquid-gas (323.15 K, m1 = 0.007) was 28.43 ± 0.63 mN/m, the surface tension liquid-gas (323.15 K, m1 = 0.008) was 26.79 ± 0.6 mN/m and the electrical conductivity (323.15 K, m1 = 0.00159) was 0.00958 ± 0.00097 S/m. For the same molecule, the electrical conductivity (323.15 K, m1 = 0.00317) was 0.0164 ± 0.0017 S/m, the electrical conductivity (323.15 K, m1 = 0.00474) was 0.0257 ± 0.0026 S/m and the electrical conductivity (323.15 K, m1 = 0.0063) was 0.0329 ± 0.0033 S/m. It also gave an electrical conductivity (323.15 K, m1 = 0.00784) of 0.0387 ± 0.0039 S/m.

Work on CCC(=O)[O-].CCCCCCCCCCCC[NH2+]C1O[C@H](CO)[C@@H](O[C@@H]2O[C@H](CO)[C@H](O)[C@H](O)[C@H]2O)[C@H](O)[C@H]1O (some centres not stated) [N-dodecyllactosylammonium propanoate] + O yielded a surface tension liquid-gas (323.15 K, m1 = 0.2) of 67.63 ± 0.79 mN/m, a surface tension liquid-gas (323.15 K, m1 = 0.3) of 63.03 ± 0.74 mN/m and a surface tension liquid-gas (323.15 K, m1 = 0.4) of 58.77 ± 0.71 mN/m. The surface tension liquid-gas (323.15 K, m1 = 0.5) was 53.31 ± 0.65 mN/m, the surface tension liquid-gas (323.15 K, m1 = 0.6) was 50.73 ± 0.63 mN/m and the surface tension liquid-gas (323.15 K, m1 = 0.7) was 45.91 ± 0.58 mN/m. The surface tension liquid-gas (323.15 K, m1 = 0.8) was 42.76 ± 0.55 mN/m, the surface tension liquid-gas (323.15 K, m1 = 0.9) was 39.81 ± 0.52 mN/m and the surface tension liquid-gas (323.15 K, m1 = 1) was 37.73 ± 0.5 mN/m. The surface tension liquid-gas (323.15 K, m1 = 1.1) was 35.61 ± 0.48 mN/m, the surface tension liquid-gas (323.15 K, m1 = 1.2) was 34.86 ± 0.48 mN/m and the electrical conductivity (323.15 K, m1 = 0.2) was 0.001042 ± 1e-06 S/m. The electrical conductivity (323.15 K, m1 = 0.4) was 0.001921 ± 1e-06 S/m, the electrical conductivity (323.15 K, m1 = 0.6) was 0.00272 ± 1e-05 S/m and the electrical conductivity (323.15 K, m1 = 0.79) was 0.00355 ± 1e-05 S/m. For the same molecule, the electrical conductivity (323.15 K, m1 = 0.99) was 0.00435 ± 1e-05 S/m and the electrical conductivity (323.15 K, m1 = 1.19) was 0.00512 ± 1e-05 S/m.

O [water] + CCC(=O)[O-].CCCCCCCCCCCC[NH2+]C1O[C@H](CO)[C@@H](O[C@@H]2O[C@H](CO)[C@H](O)[C@H](O)[C@H]2O)[C@H](O)[C@H]1O showed a surface tension liquid-gas (323.15 K, m2 = 0) of 68.57 ± 0.79 mN/m and an electrical conductivity (323.15 K, m2 = 0) of 0.0001534 ± 1e-07 S/m.

With O [water] + CCCCCC(=O)[O-].CCCCCCCCCCCC[NH2+]C1O[C@H](CO)[C@@H](O[C@@H]2O[C@H](CO)[C@H](O)[C@H](O)[C@H]2O)[C@H](O)[C@H]1O the surface tension liquid-gas (323.15 K, m2 = 0) was 68.72 ± 0.79 mN/m and the electrical conductivity (323.15 K, m2 = 0) was 0.000255 ± 1e-06 S/m.

Molecule O [water] + CCCCCCCCCCCC[NH2+]C1O[C@H](CO)[C@@H](O[C@@H]2O[C@H](CO)[C@H](O)[C@H](O)[C@H]2O)[C@H](O)[C@H]1O.CCCCCCCCCCCC[NH2+]C1O[C@H](CO)[C@@H](O[C@@H]2O[C@H](CO)[C@H](O)[C@H](O)[C@H]2O)[C@H](O)[C@H]1O.O=C([O-])CC(=O)[O-] has a surface tension liquid-gas (298.15 K, m2 = 0) of 71.76 ± 1.6 mN/m and a surface tension liquid-gas (323.15 K, m2 = 0) of 68.05 ± 1.5 mN/m.

O [water] + CCCCCCCCCCCC[NH2+]C1O[C@H](CO)[C@@H](O[C@@H]2O[C@H](CO)[C@H](O)[C@H](O)[C@H]2O)[C@H](O)[C@H]1O.CCCCCCCCCCCC[NH2+]C1O[C@H](CO)[C@@H](O[C@@H]2O[C@H](CO)[C@H](O)[C@H](O)[C@H]2O)[C@H](O)[C@H]1O.O=C([O-])CCCCC(=O)[O-] showed a surface tension liquid-gas (298.15 K, m2 = 0) of 72.71 ± 1.6 mN/m and a surface tension liquid-gas (323.15 K, m2 = 0) of 68.94 ± 1.5 mN/m.
